Results reported in ChEMBL document CHEMBL4507296 (2021).
Active and inactive are the calls of the source. The rule behind the calls is not given here.

Assays:
[1] = target: Sigma non-opioid intracellular receptor 1 (Homo sapiens) (UniProt Q99720); details: Compound concentration 10.0 uM
[2] = target: Serine/threonine-protein kinase Chk1 (Homo sapiens) (UniProt O14757); details: Compound concentration 1000.0 nM
[3] = target: Ribosomal protein S6 kinase alpha-5 (Homo sapiens) (UniProt O75582); details: Compound concentration 1000.0 nM
[4] = target: Mu-type opioid receptor (Homo sapiens) (UniProt P35372); details: Compound concentration 10.0 uM
[5] = target: Serine/threonine-protein kinase MRCK gamma (Homo sapiens) (UniProt Q6DT37); details: Compound concentration 1000.0 nM
Chain of Serine/threonine-protein kinase MRCK gamma (Homo sapiens) (Q6DT37 whole entry): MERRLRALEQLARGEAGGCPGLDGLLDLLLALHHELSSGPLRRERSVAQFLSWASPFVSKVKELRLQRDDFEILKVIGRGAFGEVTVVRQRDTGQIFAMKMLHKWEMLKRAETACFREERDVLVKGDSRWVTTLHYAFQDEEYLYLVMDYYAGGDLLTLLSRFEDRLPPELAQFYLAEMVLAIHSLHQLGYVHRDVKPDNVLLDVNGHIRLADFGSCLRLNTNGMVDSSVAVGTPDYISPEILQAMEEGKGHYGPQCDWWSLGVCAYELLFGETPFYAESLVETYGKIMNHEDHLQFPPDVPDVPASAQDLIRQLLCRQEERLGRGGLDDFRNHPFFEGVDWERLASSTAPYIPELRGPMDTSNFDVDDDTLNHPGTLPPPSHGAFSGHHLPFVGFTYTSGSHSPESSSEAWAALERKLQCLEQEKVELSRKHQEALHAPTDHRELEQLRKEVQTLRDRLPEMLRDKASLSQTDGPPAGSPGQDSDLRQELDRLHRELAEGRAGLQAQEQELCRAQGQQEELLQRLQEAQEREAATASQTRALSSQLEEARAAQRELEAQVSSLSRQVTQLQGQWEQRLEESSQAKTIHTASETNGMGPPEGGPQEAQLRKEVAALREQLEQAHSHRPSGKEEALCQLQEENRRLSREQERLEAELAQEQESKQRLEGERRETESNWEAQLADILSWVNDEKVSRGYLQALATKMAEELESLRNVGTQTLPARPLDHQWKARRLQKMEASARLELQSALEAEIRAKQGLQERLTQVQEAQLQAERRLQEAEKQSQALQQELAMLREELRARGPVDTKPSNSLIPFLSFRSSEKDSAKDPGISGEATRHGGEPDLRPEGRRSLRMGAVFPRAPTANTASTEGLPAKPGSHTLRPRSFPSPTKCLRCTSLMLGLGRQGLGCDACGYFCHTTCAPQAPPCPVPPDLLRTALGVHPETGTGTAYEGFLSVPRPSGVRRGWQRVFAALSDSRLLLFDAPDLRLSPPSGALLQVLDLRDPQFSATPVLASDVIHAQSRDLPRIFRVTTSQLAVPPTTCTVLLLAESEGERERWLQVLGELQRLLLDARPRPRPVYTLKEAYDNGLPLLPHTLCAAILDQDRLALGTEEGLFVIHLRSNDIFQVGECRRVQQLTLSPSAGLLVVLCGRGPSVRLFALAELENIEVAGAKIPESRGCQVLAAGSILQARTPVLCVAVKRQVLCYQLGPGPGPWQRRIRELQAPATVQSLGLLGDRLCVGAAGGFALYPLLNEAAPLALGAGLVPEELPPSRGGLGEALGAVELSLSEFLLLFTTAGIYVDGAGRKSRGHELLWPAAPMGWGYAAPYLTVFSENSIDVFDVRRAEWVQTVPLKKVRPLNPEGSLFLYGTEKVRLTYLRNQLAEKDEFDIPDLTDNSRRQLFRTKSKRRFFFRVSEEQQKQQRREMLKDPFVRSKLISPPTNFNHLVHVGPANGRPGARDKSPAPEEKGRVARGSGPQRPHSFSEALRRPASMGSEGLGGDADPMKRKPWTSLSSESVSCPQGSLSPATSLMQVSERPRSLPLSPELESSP

[6] = target: MAP kinase-interacting serine/threonine-protein kinase 2 (Homo sapiens) (UniProt Q9HBH9); details: Compound concentration 1000.0 nM
[7] = target: Histamine H3 receptor (Homo sapiens) (UniProt Q9Y5N1); details: Compound concentration 10.0 uM
[8] = target: Serine/threonine-protein kinase SIK2 (Homo sapiens) (UniProt Q9H0K1); details: Compound concentration 1000.0 nM
[9] = target: Tyrosine-protein kinase SYK (Homo sapiens) (UniProt P43405); details: Compound concentration 1000.0 nM
[10] = test system: Receptor-type tyrosine-protein kinase FLT3 (Homo sapiens), P36888 [N841I]; details: Compound concentration 1000.0 nM
[11] = target: Mitogen-activated protein kinase kinase kinase kinase 5 (Homo sapiens) (UniProt Q9Y4K4); details: Compound concentration 1000.0 nM
[12] = test system: Tyrosine-protein kinase ABL1 (Homo sapiens), P00519 [H396P]; details: Compound concentration 1000.0 nM
[13] = target: Cyclin-dependent kinase 11A (Homo sapiens) (UniProt Q9UQ88); details: Compound concentration 1000.0 nM
[14] = target: Tyrosine-protein kinase Fer (Homo sapiens) (UniProt P16591); details: Compound concentration 1000.0 nM
[15] = target: Bone morphogenetic protein receptor type-2 (Homo sapiens) (UniProt Q13873); details: Compound concentration 1000.0 nM
[16] = target: Platelet-derived growth factor receptor beta (Homo sapiens) (UniProt P09619); details: Compound concentration 1000.0 nM
[17] = target: Serine/threonine-protein kinase RIO3 (Homo sapiens) (UniProt O14730); details: Compound concentration 1000.0 nM
[18] = target: Platelet-derived growth factor receptor alpha (Homo sapiens) (UniProt P16234); details: Compound concentration 1000.0 nM
[19] = target: Serine/threonine-protein kinase LATS1 (Homo sapiens) (UniProt O95835); details: Compound concentration 1000.0 nM
[20] = target: Cyclin-dependent kinase 19 (Homo sapiens) (UniProt Q9BWU1); details: Compound concentration 1000.0 nM
Chain of Cyclin-dependent kinase 19 (Homo sapiens) (Q9BWU1 whole entry): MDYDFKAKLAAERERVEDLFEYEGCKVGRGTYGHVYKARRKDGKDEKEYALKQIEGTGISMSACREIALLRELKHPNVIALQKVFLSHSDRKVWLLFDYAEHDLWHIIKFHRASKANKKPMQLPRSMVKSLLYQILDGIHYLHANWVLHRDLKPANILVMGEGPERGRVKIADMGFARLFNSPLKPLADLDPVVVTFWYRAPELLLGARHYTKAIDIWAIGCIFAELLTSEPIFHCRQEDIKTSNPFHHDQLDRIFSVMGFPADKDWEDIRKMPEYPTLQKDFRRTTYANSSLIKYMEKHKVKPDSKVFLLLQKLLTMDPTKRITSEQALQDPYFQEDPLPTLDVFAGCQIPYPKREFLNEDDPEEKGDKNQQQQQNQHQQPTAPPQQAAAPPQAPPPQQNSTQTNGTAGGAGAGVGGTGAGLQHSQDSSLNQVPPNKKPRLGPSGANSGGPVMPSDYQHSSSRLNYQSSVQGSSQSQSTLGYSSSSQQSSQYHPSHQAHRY

[21] = target: Hormonally up-regulated neu tumor-associated kinase (Homo sapiens) (UniProt P57058); details: Compound concentration 1000.0 nM
[22] = target: Transient receptor potential cation channel subfamily M member 8 (Homo sapiens, UniProt Q7Z2W7); experiment: Voltage activation at 12 °C
[23] = target: 5-hydroxytryptamine receptor 6 (Homo sapiens) (UniProt P50406); details: Compound concentration 10.0 uM
Chain of 5-hydroxytryptamine receptor 6 (Homo sapiens) (P50406 whole entry): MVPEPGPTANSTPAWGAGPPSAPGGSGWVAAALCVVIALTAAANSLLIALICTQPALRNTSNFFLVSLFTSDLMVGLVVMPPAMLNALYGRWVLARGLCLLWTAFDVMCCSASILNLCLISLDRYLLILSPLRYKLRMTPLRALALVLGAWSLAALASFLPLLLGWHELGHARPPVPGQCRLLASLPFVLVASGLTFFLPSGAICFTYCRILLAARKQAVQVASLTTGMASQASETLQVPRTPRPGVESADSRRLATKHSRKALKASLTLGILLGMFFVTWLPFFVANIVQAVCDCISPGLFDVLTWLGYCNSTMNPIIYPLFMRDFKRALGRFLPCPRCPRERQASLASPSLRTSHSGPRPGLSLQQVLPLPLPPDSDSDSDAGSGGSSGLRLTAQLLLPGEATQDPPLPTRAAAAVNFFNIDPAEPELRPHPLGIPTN

[24] = target: Alpha-2C adrenergic receptor (Homo sapiens) (UniProt P18825); details: Compound concentration 10.0 uM
[25] = target: Mitotic checkpoint serine/threonine-protein kinase BUB1 (Homo sapiens) (UniProt O43683); details: Compound concentration 1000.0 nM
[26] = target: Dual specificity mitogen-activated protein kinase kinase 7 (Homo sapiens) (UniProt O14733); details: Compound concentration 1000.0 nM
[27] = target: Mitogen-activated protein kinase kinase kinase 1 (Homo sapiens) (UniProt Q13233); details: Compound concentration 1000.0 nM
[28] = target: Mitogen-activated protein kinase kinase kinase 10 (Homo sapiens) (UniProt Q02779); details: Compound concentration 1000.0 nM
[29] = target: Microtubule-associated serine/threonine-protein kinase 1 (Homo sapiens) (UniProt Q9Y2H9); details: Compound concentration 1000.0 nM
[30] = target: Tyrosine-protein kinase CSK (Homo sapiens) (UniProt P41240); details: Compound concentration 1000.0 nM
[31] = target: Homeodomain-interacting protein kinase 1 (Homo sapiens) (UniProt Q86Z02); details: Compound concentration 1000.0 nM
[32] = target: Receptor-type tyrosine-protein kinase FLT3 (Homo sapiens) (UniProt P36888); details: Compound concentration 1000.0 nM
[33] = target: Ribosomal protein S6 kinase alpha-4 (Homo sapiens) (UniProt O75676); details: Compound concentration 1000.0 nM
Chain of Ribosomal protein S6 kinase alpha-4 (Homo sapiens) (O75676 whole entry, looked up): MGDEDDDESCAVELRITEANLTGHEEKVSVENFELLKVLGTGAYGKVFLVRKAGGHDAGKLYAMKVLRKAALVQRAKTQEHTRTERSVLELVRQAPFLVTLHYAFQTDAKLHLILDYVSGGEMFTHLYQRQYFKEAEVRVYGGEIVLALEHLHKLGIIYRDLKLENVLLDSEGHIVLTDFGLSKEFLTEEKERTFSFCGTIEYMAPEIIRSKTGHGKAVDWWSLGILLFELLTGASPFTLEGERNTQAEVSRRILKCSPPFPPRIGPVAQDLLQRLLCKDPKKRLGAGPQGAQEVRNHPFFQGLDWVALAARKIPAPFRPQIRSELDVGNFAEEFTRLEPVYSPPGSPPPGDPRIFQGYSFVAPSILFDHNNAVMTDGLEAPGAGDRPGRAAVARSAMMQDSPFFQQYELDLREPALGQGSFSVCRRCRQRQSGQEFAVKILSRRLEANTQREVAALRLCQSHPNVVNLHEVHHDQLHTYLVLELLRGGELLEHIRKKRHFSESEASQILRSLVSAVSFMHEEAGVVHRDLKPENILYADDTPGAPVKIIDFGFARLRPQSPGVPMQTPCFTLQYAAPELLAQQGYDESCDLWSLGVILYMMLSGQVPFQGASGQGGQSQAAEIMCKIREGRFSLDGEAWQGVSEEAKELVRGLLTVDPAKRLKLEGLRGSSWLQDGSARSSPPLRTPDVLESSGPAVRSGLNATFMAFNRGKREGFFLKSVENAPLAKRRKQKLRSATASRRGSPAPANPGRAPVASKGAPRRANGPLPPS

[34] = target: Tyrosine-protein kinase Fgr (Homo sapiens) (UniProt P09769); details: Compound concentration 1000.0 nM
[35] = target: Cyclin-dependent kinase 8 (Homo sapiens) (UniProt P49336); details: Compound concentration 1000.0 nM
[36] = target: Glycogen synthase kinase-3 beta (Homo sapiens) (UniProt P49841); details: Compound concentration 1000.0 nM
[37] = target: Cyclin-dependent kinase-like 2 (Homo sapiens) (UniProt Q92772); details: Compound concentration 1000.0 nM
[38] = target: Beta-adrenergic receptor kinase 1 (Homo sapiens) (UniProt P25098); details: Compound concentration 1000.0 nM
[39] = target: Activated CDC42 kinase 1 (Homo sapiens) (UniProt Q07912); details: Compound concentration 1000.0 nM
Chain of Activated CDC42 kinase 1 (Homo sapiens) (Q07912 whole entry, looked up): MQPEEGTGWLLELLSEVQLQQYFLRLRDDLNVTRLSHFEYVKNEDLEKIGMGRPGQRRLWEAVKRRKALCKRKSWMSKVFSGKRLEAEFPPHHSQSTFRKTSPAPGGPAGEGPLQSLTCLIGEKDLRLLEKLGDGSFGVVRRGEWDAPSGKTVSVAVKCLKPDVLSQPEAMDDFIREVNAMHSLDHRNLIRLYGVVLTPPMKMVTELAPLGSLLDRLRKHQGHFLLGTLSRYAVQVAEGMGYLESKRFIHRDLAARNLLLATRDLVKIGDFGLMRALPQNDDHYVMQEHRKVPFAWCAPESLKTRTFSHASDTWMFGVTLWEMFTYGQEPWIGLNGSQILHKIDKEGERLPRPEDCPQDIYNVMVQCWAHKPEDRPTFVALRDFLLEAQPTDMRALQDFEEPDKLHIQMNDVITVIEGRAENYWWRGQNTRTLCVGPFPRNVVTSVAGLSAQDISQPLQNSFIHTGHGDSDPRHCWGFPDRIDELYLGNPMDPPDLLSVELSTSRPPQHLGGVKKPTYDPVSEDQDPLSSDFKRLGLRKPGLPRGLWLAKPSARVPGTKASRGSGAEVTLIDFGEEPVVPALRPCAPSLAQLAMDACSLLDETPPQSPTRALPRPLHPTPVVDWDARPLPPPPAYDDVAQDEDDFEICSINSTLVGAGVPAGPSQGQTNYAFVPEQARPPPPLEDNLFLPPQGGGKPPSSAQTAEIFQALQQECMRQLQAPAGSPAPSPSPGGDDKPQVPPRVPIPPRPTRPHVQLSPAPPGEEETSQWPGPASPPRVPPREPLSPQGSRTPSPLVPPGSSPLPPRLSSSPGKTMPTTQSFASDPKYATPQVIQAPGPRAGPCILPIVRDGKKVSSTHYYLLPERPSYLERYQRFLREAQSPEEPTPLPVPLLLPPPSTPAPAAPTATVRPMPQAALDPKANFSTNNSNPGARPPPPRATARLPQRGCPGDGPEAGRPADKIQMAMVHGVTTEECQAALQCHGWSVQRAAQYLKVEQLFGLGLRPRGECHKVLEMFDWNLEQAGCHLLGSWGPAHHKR

[40] = test system: Tyrosine-protein kinase ABL1 (Homo sapiens), P00519 [F317L]; details: Compound concentration 1000.0 nM
[41] = target: Activin receptor type-1-like (Homo sapiens) (UniProt P37023); details: Compound concentration 1000.0 nM
Chain of Activin receptor type-1-like (Homo sapiens) (P37023 whole entry): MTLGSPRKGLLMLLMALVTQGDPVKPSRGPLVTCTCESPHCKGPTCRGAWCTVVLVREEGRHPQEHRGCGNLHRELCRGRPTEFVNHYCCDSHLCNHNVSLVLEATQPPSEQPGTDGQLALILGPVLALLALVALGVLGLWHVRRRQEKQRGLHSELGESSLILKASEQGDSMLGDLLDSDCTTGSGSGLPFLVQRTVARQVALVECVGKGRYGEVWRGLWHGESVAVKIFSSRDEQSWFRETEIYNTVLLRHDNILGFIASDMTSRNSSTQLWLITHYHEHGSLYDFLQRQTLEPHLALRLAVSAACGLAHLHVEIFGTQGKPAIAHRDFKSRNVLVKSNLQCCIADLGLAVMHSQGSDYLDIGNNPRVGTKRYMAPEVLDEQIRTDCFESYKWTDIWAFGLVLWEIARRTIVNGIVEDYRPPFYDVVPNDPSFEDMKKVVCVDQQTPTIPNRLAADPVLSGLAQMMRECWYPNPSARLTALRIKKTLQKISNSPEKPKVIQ

[42] = target: High affinity choline transporter 1 (Homo sapiens) (UniProt Q9GZV3); experiment: Choline transporter 1 (human) CEREP ligand profiling; details: Compound concentration 10.0 uM
[43] = target: Cyclin-dependent kinase 2 (Homo sapiens) (UniProt P24941); details: Compound concentration 1000.0 nM
[44] = target: Calcium-dependent protein kinase 1 (Plasmodium falciparum) (UniProt P62344); details: Compound concentration 1000.0 nM
[45] = target: Phosphatidylinositol 4,5-bisphosphate 3-kinase catalytic subunit delta isoform (Homo sapiens) (UniProt O00329); details: Compound concentration 1000.0 nM

Chain of Sigma non-opioid intracellular receptor 1 (Homo sapiens) (Q99720 whole entry): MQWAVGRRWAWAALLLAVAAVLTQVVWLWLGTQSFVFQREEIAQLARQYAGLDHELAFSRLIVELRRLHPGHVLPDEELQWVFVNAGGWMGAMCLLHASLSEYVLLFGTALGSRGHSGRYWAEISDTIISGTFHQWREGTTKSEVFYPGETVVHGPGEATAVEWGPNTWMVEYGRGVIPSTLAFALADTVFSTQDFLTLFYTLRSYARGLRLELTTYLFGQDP

**Q.** How did the inhibition [1] turn out when C[C@H](c1ccc(F)cc1)N(Cc1cccc(C(=O)O)c1)C(=O)c1cnc2ccccc2c1 [PF-05105679] was run?
**A.** 16%

**Q.** And the residual activity [2]?
**A.** 100%

**Q.** And the residual activity [3]?
**A.** 100%

**Q.** And the inhibition [4]?
**A.** 1.23%

**Q.** And the residual activity [5]?
**A.** 100%

**Q.** And the residual activity [6]?
**A.** 74%

**Q.** And the inhibition [7]?
**A.** 16.6%

**Q.** And the residual activity [8]?
**A.** 96%

**Q.** And the residual activity [9]?
**A.** 87%

**Q.** What about the residual activity [10] of the same molecule?
**A.** 62%

**Q.** And the residual activity [11]?
**A.** 100%

**Q.** And the residual activity [12]?
**A.** 73%

**Q.** What about the residual activity [13] of the same molecule?
**A.** 100%

**Q.** And the residual activity [14]?
**A.** 100%

**Q.** And the residual activity [15]?
**A.** 75%

**Q.** What about the residual activity [16] of the same molecule?
**A.** 100%

**Q.** And the residual activity [17]?
**A.** 86%

**Q.** What about the residual activity [18] of the same molecule?
**A.** 100%

**Q.** What about the residual activity [19] of the same molecule?
**A.** 100%

**Q.** What about the residual activity [20] of the same molecule?
**A.** 100%

**Q.** And the residual activity [21]?
**A.** 100%

**Q.** What about the IC50 [22] of the same molecule?
**A.** 13.8 nM (active)

**Q.** What about the inhibition [23] of the same molecule?
**A.** 3.57%

**Q.** What about the inhibition [24] of the same molecule?
**A.** 3.68%

**Q.** And the residual activity [25]?
**A.** 89%

**Q.** What about the residual activity [26] of the same molecule?
**A.** 100%

**Q.** What about the residual activity [27] of the same molecule?
**A.** 100%

**Q.** And the residual activity [28]?
**A.** 100%

**Q.** And the residual activity [29]?
**A.** 100%

**Q.** What about the residual activity [30] of the same molecule?
**A.** 100%

**Q.** And the residual activity [31]?
**A.** 100%

**Q.** And the residual activity [32]?
**A.** 100%

**Q.** What about the residual activity [33] of the same molecule?
**A.** 85%

**Q.** What about the residual activity [34] of the same molecule?
**A.** 100%

**Q.** And the residual activity [35]?
**A.** 100%

**Q.** What about the residual activity [36] of the same molecule?
**A.** 100%

**Q.** And the residual activity [37]?
**A.** 100%

**Q.** What about the residual activity [38] of the same molecule?
**A.** 80%

**Q.** And the residual activity [39]?
**A.** 100%

**Q.** And the residual activity [40]?
**A.** 91%

**Q.** What about the residual activity [41] of the same molecule?
**A.** 100%

**Q.** What about the inhibition [42] of the same molecule?
**A.** 22%

**Q.** And the residual activity [43]?
**A.** 100%

**Q.** What about the residual activity [44] of the same molecule?
**A.** 100%

**Q.** And the residual activity [45]?
**A.** 100%
